Assay type in all cases: functional
In one assay the test system is Rattus norvegicus. Nature of the assay: Antiinflammatory activity in albino Charles-Foster rat assessed as inhibition of carrageenan-induced paw oedema at 50 mg/kg, po administered 30 mins before carrageenan challenge […] after 1-3 hrs relative to control. More on the design: scale not given: the % may be the effect or the level left. Background: The carrageenan paw model is a standard test of acute inflammation.

For the next assay, the system named is MCF7. The experiment in a line: Growth inhibition of human MCF7 cells at 10 uM after 48 hrs by SRB assay. Particulars: MCF7, 48 h, read-out: GI.
A further assay deals with HEp-2. The experiment in a line: Growth inhibition of human Hep2 cells at 10 uM after 48 hrs by SRB assay. Particulars: HEp-2, 48 h, read-out: GI. In general terms: In SRB staining, fixed cells bind dye roughly in proportion to their protein.
A further assay concerns COLO 205. Nature of the assay: Growth inhibition of human COLO205 cells at 10 uM after 48 hrs by SRB assay. Particulars: COLO 205, 48 h, read-out: GI.
A short description of assay [1]: Growth inhibition of human 502713 cells at 10 uM after 48 hrs by SRB assay. Particulars: Homo sapiens, 502713, 48 h; read-out: GI.
The test system of the next assay is A549. The experiment in a line: Growth inhibition of human A549 cells at 10 uM after 48 hrs by SRB assay. Particulars: A549, 48 h, read-out: GI.
A further assay relates to IMR-32. Nature of the assay: Growth inhibition of human IMR32 cells at 10 uM after 48 hrs by SRB assay. Particulars: IMR-32, 48 h, read-out: GI.
A further assay has as its system HCT-15. Nature of the assay: Growth inhibition of human HCT15 cells at 10 uM after 48 hrs by SRB assay. Particulars: HCT-15, 48 h, read-out: GI.

`CC(C)Cc1ccc(C(C)C(=O)O)cc1` (stereo not given) [IBUPROFEN]: the Activity with Rattus norvegicus turned out to be 39%.

As to `Cc1cccc2c(NC(=S)NCCc3c[nH]c4ccccc34)c3ccccc3nc12`, the Activity in the assay with Rattus norvegicus came to 35.77%. The inhibition of growth at 10 µM with MCF7 worked out at 95%; in the assay with HEp-2, 96%; in the assay with COLO 205 it was 98%; in assay [1], 90%; in the assay with A549, 84%; in the assay with IMR-32, 67%.

For `COc1cccc2c1C(=O)c1c(O)c3c(c(O)c1C2=O)C[C@@](O)(C(=O)CO)C[C@@H]3O[C@H]1C[C@H](N)[C@H](O)[C@H](C)O1` [DOXORUBICIN], the inhibition of growth at 10 µM in the assay with MCF7 worked out at 48%; in the assay on HEp-2, 55%; in the assay on COLO 205, 34%; in assay [1], 28%; with HCT-15, 93%; in the assay on A549 it was 44%. Further, the inhibition of growth at 10 µM in the assay on IMR-32 amounted to 86%.

In the case of `O=c1[nH]cc(F)c(=O)[nH]1` [FLUOROURACIL], the inhibition of growth at 10 µM in the assay on MCF7 is 0%; in the assay with HEp-2, 29%; in the assay with COLO 205 it was 25%; in assay [1], 40%; in the assay on HCT-15, 29%; in the assay with A549 it was 0%. Besides, the inhibition of growth at 10 µM with IMR-32 amounted to 58%.

With `COc1cccc2c(NCc3ccco3)c3ccccc3nc12`, the Activity in the assay on Rattus norvegicus was 38.37%. Besides, the inhibition of growth at 10 µM was 50% in the assay with MCF7; 54% with HEp-2; 83% in the assay on COLO 205; 62% in assay [1]; 71% with HCT-15; 36% in the assay on A549. The inhibition of growth at 10 µM in the assay with IMR-32 was 98%.

With `COc1ccc2nc3ccccc3c(NCCc3cccs3)c2c1`, the Activity in the assay with Rattus norvegicus was 41.17%. Also, the inhibition of growth at 10 µM in the assay on MCF7 amounted to 44%; in the assay on HEp-2, 52%; in the assay with COLO 205, 69%; in assay [1] it was 67%; with HCT-15, 78%; with A549, 20%. Further, the inhibition of growth at 10 µM in the assay with IMR-32 came to 89%.

With `COc1ccc2nc3ccccc3c(NCc3ccco3)c2c1`, in the assay on Rattus norvegicus, the Activity came to 22.96%. Further, the inhibition of growth at 10 µM in the assay with MCF7 was 44%; in the assay with HEp-2, 56%; in the assay on COLO 205, 88%; in assay [1], 65%; in the assay with HCT-15 it was 80%; in the assay with A549 it was 35%. For the same molecule, in the assay with IMR-32, the inhibition of growth at 10 µM is 95%.

Regarding `COc1cccc2c(NCCc3c[nH]c4ccccc34)c3ccccc3nc12`, the Activity with Rattus norvegicus came to 39.69%. Further, the inhibition of growth at 10 µM in the assay on MCF7 is 78%; with HEp-2, 75%; in the assay with COLO 205 it was 84%; in assay [1], 63%; in the assay with HCT-15 it was 91%; with A549, 49%. Moreover, the inhibition of growth at 10 µM in the assay with IMR-32 was 99%.

Regarding `COc1cccc2c(NCCc3cccs3)c3ccccc3nc12`, the Activity with Rattus norvegicus is listed as 26.05%. Besides, the inhibition of growth at 10 µM came to 37% in the assay with MCF7; 62% in the assay on HEp-2; 24% in the assay on COLO 205; 67% in assay [1]; 73% in the assay with HCT-15; 61% in the assay with A549. Besides, the inhibition of growth at 10 µM with IMR-32 was found to be 78%.

As to `COc1ccc2nc3ccccc3c(NC(=S)NCC3CCCO3)c2c1` (racemic), the Activity in the assay on Rattus norvegicus is reported as 29.57%. Moreover, the inhibition of growth at 10 µM came to 8% in the assay with MCF7; 8% in the assay on HEp-2; 20% in the assay with COLO 205; 21% in assay [1]; 41% in the assay on HCT-15; 24% in the assay on A549. Moreover, the inhibition of growth at 10 µM in the assay with IMR-32 was 27%.

With `COc1ccc2nc3ccccc3c(NC(=S)NCCc3cccs3)c2c1`, in the assay on Rattus norvegicus, the Activity stood at 34.08%. The inhibition of growth at 10 µM with MCF7 was found to be 34%; in the assay with HEp-2, 28%; in the assay on COLO 205 it was 35%; in assay [1], 46%; in the assay on HCT-15 it was 45%; with A549 it was 42%. In the assay with IMR-32, the inhibition of growth at 10 µM was 74%.

Regarding `CO[C@@]12[C@H](COC(N)=O)C3=C(C(=O)C(C)=C(N)C3=O)N1C[C@@H]1N[C@@H]12` [MITOMYCIN], the inhibition of growth at 10 µM in the assay on HEp-2 is 58%; in the assay with COLO 205 it was 4%; in assay [1], 44%; in the assay on HCT-15, 25%; with A549, 40%; in the assay with IMR-32, 85%.

For `CC(=O)O[C@H]1C(=O)[C@@]2(C)[C@H]([C@H](OC(=O)c3ccccc3)[C@]3(O)C[C@H](OC(=O)[C@H](O)[C@@H](NC(=O)c4ccccc4)c4ccccc4)C(C)=C1C3(C)C)[C@]1(OC(C)=O)CO[C@@H]1C[C@@H]2O` [PACLITAXEL], the inhibition of growth at 10 µM in the assay on MCF7 was found to be 65%; in the assay on HEp-2 it was 75%; in the assay with COLO 205, 61%; in assay [1], 58%; in the assay on HCT-15 it was 84%; with A549 it was 51%. Also, the inhibition of growth at 10 µM in the assay with IMR-32 was 58%.

In the case of `COc1cccc2c(NCC3CCCO3)c3ccccc3nc12` (racemic), the Activity in the assay with Rattus norvegicus is reported as 0%. The inhibition of growth at 10 µM in the assay on MCF7 turned out to be 52%; in the assay on HEp-2, 34%; in the assay with COLO 205, 66%; in assay [1] it was 60%; in the assay on HCT-15 it was 64%; in the assay on A549, 56%. The inhibition of growth at 10 µM with IMR-32 worked out at 69%.

Consider `Cc1cccc2c(NC(=S)NCc3ccco3)c3ccccc3nc12`, for which the Activity in the assay on Rattus norvegicus was determined as 32.33%. For the same molecule, the inhibition of growth at 10 µM in the assay with MCF7 came to 94%; in the assay on HEp-2, 61%; with COLO 205, 88%; in assay [1], 95%; with A549 it was 46%; in the assay with IMR-32 it was 5%.

Regarding `Cc1cccc2c(NC(=S)NCCc3cccs3)c3ccccc3nc12`, the Activity with Rattus norvegicus stood at 30.7%. The inhibition of growth at 10 µM in the assay with MCF7 is 92%; in the assay on HEp-2, 67%; in the assay on COLO 205, 19%; in assay [1], 71%; with A549 it was 53%; with IMR-32, 42%.

For the molecule `Cc1cccc2c(NC(=S)NCC3CCCO3)c3ccccc3nc12` (racemic), the Activity in the assay on Rattus norvegicus is recorded as 25.35%. The inhibition of growth at 10 µM in the assay with MCF7 worked out at 99%; with HEp-2, 14%; with COLO 205, 71%; in assay [1], 95%; with A549 it was 96%; in the assay on IMR-32 it was 21%.

For the origin of these results see ChEMBL document CHEMBL1154710, “Synthesis, anti-inflammatory and anticancer activity evaluation of some novel acridine derivatives” (2010).
